Experimental findings from ChEMBL document CHEMBL1909046, “DrugMatrix in vitro pharmacology data” are described below.

pIC50, pKi: −log10 of the molar value.

The target in series [1] is Sodium-dependent noradrenaline transporter (Homo sapiens, UniProt P23975). Put plainly: DRUGMATRIX: Norepinephrine Transporter radioligand binding (ligand: [125I] RTI-55). The conditions noted are these: mdck; Not Active = under 50% inhibition at 10 µM. Type of series: cell membranes, MDCK, Membrane.
Series [2] can be described thus: DRUGMATRIX: Atrial Natriuretic Factor (ANF) radioligand binding (ligand: [125I] ANF (rat)). The conditions noted are these: Not Active = under 50% inhibition at 10 µM. The class given is cell membranes, Cavia porcellus, Dunkin-Hartley, Adrenal gland, Membrane.
For series [3], the target named is T1, 5-hydroxytryptamine receptor 2C (Homo sapiens, UniProt P28335).
T1 sequence (P28335 whole entry): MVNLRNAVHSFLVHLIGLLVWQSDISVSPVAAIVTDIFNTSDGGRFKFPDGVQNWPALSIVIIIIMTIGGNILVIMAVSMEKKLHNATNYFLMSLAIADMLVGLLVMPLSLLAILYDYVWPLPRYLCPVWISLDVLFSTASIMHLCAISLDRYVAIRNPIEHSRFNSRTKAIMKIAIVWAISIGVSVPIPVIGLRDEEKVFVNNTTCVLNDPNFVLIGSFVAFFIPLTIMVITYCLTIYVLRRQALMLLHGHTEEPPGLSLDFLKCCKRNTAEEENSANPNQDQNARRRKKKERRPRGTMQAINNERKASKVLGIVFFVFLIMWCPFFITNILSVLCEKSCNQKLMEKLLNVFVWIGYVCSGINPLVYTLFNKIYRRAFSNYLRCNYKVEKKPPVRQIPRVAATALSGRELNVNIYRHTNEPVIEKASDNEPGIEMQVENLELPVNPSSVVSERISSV
Put plainly: DRUGMATRIX: Serotonin (5-Hydroxytryptamine) 5-HT2C radioligand binding (ligand: [3H] Mesulergine). Type of series: cell membranes, CHO-K1, Membrane. The conditions noted are these: Not Active = under 50% inhibition at 10 µM; for IC50: cho-k1.

Series [4] addresses Sigma non-opioid intracellular receptor 1 (Homo sapiens, UniProt Q99720). As to the kind of experiment: DRUGMATRIX: Sigma1 radioligand binding (ligand: [3H] Haloperidol). The class given is cell membranes, Jurkat, Membrane. The conditions noted are these: jurkat; Not Active = under 50% inhibition at 10 µM.
The next series deals with T2, Thromboxane-A synthase (Homo sapiens, UniProt P24557).
T2 sequence (P24557 whole entry): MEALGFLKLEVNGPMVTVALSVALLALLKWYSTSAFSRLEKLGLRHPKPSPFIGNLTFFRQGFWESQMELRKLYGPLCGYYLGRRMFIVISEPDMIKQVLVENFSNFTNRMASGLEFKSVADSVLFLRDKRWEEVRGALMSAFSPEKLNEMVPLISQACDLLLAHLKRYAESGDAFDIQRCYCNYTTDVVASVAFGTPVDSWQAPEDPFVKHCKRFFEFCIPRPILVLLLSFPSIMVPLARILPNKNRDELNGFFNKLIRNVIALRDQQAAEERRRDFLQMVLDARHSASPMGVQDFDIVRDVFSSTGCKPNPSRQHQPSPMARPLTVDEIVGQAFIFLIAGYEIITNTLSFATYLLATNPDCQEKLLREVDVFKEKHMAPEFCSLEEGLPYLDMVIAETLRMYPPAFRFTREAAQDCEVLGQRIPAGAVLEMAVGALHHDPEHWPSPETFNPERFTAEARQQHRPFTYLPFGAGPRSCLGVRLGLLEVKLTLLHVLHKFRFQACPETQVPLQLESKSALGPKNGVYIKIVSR
As to the kind of experiment: biochemical. The settings on record: platelet. The class given is tissue-based, Platelet.

The nature of series [5]: DRUGMATRIX: Glutamate, NMDA, Agonism radioligand binding (ligand: [3H] CGP-39653). Type of series: cell membranes, Rattus norvegicus, Wistar, Cerebral cortex, Membrane. The conditions noted are these: Not Active = under 50% inhibition at 10 µM.
Series [6] has as its target Platelet-activating factor receptor (Homo sapiens, UniProt P25105). Put plainly: biochemical. The class given is tissue-based. The settings on record: platelet. Note: in other assays of this panel Not Active means under 50% inhibition at 10 µM.
The target in series [7] is T3, Receptor-type tyrosine-protein phosphatase C (Homo sapiens, UniProt P08575).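 Note: inhibition of CD45 enzyme activity measured using DiFMUP as substrate; in other assays of this panel Not Active means under 50% inhibition at 10 µM.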
T3 sequence (P08575 whole entry): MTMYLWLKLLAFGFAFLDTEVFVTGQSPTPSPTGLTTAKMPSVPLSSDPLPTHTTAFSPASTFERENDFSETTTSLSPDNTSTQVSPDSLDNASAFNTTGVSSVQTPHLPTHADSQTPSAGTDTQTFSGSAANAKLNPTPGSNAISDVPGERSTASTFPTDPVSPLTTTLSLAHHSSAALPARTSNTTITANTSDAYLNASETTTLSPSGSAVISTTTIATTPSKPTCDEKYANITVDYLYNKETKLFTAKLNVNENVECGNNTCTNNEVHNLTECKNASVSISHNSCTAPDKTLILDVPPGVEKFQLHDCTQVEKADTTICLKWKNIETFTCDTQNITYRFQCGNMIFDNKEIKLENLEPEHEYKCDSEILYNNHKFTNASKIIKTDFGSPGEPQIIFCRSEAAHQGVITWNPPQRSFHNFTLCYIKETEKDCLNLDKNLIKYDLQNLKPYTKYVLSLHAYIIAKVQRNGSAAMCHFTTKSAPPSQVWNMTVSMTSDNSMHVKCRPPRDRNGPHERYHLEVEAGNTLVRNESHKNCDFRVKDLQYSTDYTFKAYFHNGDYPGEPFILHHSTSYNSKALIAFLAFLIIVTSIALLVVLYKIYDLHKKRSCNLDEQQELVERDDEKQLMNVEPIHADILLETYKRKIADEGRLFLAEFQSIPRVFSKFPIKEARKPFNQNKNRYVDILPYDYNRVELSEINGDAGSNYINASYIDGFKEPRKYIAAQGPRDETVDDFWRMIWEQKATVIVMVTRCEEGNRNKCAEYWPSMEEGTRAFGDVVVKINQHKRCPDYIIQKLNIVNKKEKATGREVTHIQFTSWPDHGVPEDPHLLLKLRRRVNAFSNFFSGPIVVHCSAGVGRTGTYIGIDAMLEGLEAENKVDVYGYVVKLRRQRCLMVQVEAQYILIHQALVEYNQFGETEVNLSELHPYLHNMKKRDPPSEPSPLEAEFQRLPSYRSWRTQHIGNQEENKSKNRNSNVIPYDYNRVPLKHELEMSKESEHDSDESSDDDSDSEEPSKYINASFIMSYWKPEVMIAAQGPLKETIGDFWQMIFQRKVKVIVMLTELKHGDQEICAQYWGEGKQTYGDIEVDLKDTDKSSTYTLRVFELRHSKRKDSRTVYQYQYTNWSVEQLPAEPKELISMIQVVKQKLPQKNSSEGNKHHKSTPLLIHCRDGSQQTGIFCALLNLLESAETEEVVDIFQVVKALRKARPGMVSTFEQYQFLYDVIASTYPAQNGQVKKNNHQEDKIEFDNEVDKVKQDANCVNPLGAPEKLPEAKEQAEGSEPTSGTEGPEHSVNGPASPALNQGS
Set-up: species or system Escherichia coli.

A further series addresses Adenosine receptor A2a (Homo sapiens, UniProt P29274). As to the kind of experiment: DRUGMATRIX: Adenosine A2A radioligand binding (ligand: […]). Type of series: cell membranes, HEK293, Membrane. The conditions noted are these: hek293; Not Active = under 50% inhibition at 10 µM.
In series [8] the target is Voltage-gated inwardly rectifying potassium channel KCNH2 (Homo sapiens, UniProt Q12809). The conditions noted are these: hek293. Note: in other assays of this panel Not Active means under 50% inhibition at 10 µM.
Chain of Voltage-gated inwardly rectifying potassium channel KCNH2 (Q12809 whole entry): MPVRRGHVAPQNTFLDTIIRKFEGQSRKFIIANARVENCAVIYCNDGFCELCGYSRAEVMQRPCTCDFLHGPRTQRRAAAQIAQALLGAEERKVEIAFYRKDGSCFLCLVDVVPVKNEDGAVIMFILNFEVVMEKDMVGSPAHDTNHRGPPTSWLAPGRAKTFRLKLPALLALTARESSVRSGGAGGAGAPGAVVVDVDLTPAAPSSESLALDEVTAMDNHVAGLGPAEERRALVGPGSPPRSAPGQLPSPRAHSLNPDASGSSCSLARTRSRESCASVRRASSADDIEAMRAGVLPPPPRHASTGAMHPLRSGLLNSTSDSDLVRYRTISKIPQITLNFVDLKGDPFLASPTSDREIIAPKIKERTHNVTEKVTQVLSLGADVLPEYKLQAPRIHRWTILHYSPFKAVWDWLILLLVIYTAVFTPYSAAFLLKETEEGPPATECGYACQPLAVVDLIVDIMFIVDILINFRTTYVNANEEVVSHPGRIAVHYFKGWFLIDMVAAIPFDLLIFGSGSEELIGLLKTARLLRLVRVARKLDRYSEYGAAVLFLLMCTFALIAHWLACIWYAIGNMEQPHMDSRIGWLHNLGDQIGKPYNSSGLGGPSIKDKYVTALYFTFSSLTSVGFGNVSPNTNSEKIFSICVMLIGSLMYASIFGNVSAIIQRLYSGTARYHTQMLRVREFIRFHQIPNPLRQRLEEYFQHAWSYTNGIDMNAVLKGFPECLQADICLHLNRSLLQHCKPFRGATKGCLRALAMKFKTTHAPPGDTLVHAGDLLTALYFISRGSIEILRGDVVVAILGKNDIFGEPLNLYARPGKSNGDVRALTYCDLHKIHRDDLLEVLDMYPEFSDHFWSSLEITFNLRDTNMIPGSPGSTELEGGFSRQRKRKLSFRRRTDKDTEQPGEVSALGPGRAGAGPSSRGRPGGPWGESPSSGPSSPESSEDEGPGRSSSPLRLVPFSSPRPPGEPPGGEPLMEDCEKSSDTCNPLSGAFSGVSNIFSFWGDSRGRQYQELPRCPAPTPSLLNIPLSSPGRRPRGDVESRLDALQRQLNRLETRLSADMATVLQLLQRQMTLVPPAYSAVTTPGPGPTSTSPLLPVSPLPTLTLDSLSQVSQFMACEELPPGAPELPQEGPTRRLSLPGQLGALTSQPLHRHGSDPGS

Chain of Sodium-dependent noradrenaline transporter (P23975 whole entry): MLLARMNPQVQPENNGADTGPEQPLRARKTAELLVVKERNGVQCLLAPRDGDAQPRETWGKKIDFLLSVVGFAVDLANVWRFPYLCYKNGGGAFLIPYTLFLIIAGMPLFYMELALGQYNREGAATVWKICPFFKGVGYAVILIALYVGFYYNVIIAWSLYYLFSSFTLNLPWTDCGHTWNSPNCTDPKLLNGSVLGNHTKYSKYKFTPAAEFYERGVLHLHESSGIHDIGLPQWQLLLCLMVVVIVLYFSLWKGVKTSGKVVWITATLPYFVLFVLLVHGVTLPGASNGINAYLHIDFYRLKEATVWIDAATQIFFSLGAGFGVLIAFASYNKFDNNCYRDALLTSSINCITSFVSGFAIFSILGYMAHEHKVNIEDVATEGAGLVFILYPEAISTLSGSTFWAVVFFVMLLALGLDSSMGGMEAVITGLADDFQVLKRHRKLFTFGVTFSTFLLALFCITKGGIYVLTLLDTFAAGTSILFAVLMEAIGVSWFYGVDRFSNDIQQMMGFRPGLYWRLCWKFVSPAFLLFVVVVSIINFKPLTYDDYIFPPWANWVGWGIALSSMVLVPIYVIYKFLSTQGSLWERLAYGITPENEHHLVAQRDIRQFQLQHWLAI
Chain of Adenosine receptor A2a (P29274 whole entry): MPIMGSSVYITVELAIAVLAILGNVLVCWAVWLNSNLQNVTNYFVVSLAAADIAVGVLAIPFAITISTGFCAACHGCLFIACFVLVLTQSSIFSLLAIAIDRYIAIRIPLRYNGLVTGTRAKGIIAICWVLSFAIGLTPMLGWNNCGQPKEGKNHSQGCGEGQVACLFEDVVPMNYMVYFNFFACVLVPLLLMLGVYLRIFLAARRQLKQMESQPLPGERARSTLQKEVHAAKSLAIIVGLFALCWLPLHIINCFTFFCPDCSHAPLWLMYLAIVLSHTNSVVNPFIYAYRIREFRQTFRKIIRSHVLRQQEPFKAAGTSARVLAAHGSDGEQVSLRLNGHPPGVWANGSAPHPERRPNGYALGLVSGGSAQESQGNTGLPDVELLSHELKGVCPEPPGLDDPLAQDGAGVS
Chain of Platelet-activating factor receptor (P25105 whole entry): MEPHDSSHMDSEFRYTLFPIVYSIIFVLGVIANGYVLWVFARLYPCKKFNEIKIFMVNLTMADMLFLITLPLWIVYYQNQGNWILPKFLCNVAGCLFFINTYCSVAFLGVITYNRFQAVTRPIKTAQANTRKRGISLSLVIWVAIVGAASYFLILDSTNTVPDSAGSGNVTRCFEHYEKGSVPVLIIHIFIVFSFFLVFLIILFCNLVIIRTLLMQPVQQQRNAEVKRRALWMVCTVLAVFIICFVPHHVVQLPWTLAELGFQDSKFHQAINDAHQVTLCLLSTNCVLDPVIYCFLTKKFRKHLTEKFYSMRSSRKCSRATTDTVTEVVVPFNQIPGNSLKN
Chain of Sigma non-opioid intracellular receptor 1 (Q99720 whole entry): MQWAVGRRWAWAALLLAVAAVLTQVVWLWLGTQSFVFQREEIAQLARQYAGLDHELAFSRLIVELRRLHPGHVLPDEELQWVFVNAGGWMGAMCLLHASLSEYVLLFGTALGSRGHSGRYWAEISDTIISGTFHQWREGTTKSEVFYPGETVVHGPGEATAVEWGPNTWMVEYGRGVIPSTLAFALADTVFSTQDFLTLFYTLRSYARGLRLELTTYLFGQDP

As for `CCCCOC(=O)c1ccc(N)cc1` [BUTAMBEN], the IC50 entry (in series [1]; in [2]; in [3]; in [4]; on Thromboxane-A synthase; in [5]) was “Not Active” each time. The IC50 entry (in series [6]; in [7]; at Adenosine receptor A2a; in [8]) was “Not Active” each time. Also, the Ki result in series [2], in series [5] and in series [8] was “Not Active” each time.

`CC[C@@]1(O)C(=O)OCc2c1cc1n(c2=O)Cc2cc3ccccc3nc2-1` [CAMPTOTHECIN]: the IC50 entry (in [1]; in series [2]; in series [3]; in series [4]; against Thromboxane-A synthase; in series [5]) was “Not Active” each time. Besides, the IC50 result (in [6]; in series [7]; on Adenosine receptor A2a; in [8]) was “Not Active” throughout. Besides, the Ki entry in [2], in series [5] and in [8] was “Not Active” throughout.

Turning to `CC(=O)O[C@]1(C(C)=O)CC[C@H]2[C@@H]3C=C(Cl)C4=CC(=O)CC[C@]4(C)[C@H]3CC[C@@]21C` [CHLORMADINONE ACETATE], the IC50 result (in series [1]; in series [2]; in series [3]; in series [4]; against Thromboxane-A synthase; in series [5]) was “Not Active” each time. Further, the IC50 entry (in series [6]; in series [7]; on Adenosine receptor A2a; in series [8]) was “Not Active” throughout. For the same molecule, the Ki entry in [2], in [5] and in series [8] was “Not Active” in each case.

As for `O=C1CCc2cc(OCCCCc3nnnn3C3CCCCC3)ccc2N1` [CILOSTAZOL], the IC50 entry (in series [1]; in series [2]; in [3]; in [4]; at Thromboxane-A synthase; in [5]) was “Not Active” throughout. The IC50 result (in series [6]; in series [7]; on Adenosine receptor A2a; in series [8]) was “Not Active” throughout. The Ki entry in [2], in series [5] and in series [8] was “Not Active” throughout.

Regarding `COC(=O)[C@H](c1ccccc1Cl)N1CCc2sccc2C1` [CLOPIDOGREL], the IC50 result (in [1]; in series [2]; in [3]; in series [4]; on Thromboxane-A synthase; in series [5]) was “Not Active” throughout. In addition, the IC50 entry (in [6]; in series [7]; at Adenosine receptor A2a; in series [8]) was “Not Active” throughout. In addition, the Ki entry in series [2], in [5] and in series [8] was “Not Active” in each case.

As to `C[C@]12CCC(=O)C=C1CC[C@@H]1[C@@H]2C(=O)C[C@@]2(C)[C@H]1CC[C@]2(O)C(=O)CO` [CORTISONE], the IC50 entry (in series [1]; in series [2]; in [3]; in [4]; at Thromboxane-A synthase; in series [5]) was “Not Active” throughout. In addition, the IC50 entry (in [6]; in series [7]; on Adenosine receptor A2a; in [8]) was “Not Active” each time. The Ki result in series [2], in series [5] and in series [8] was “Not Active” each time.

Regarding `Cc1ccccc1N1CCN(CCc2nnc3n2CCCC3)CC1` [DAPIPRAZOLE], the IC50 result (in [1]; in series [2]; in series [4]; on Thromboxane-A synthase; in series [5]; in [6]) was “Not Active” in each case. The IC50 entry (in series [7]; on Adenosine receptor A2a; in series [8]) was “Not Active” each time. In addition, the Ki result in series [2], in series [5] and in series [8] was “Not Active” throughout. Also, the negative-log IC50 (pIC50) in [3] (read-out: IC50) was 6.20. Moreover, the pKi in series [3] (read-out: Ki) was 6.49.

For the molecule `CC1=Nc2ccc(Cl)cc2S(=O)(=O)N1` [DIAZOXIDE], the IC50 entry (in series [1]; in series [2]; in [3]; in series [4]; against Thromboxane-A synthase; in series [5]) was “Not Active” in each case. The IC50 entry (in series [6]; in series [7]; on Adenosine receptor A2a; in series [8]) was “Not Active” each time. Further, the Ki entry in series [2], in series [5] and in series [8] was “Not Active” each time.

In general, pIC50 refers to the IC50 on a negative log10 scale, so that one unit is a factor of ten. As a reminder, the pKi is the negative decadic logarithm of the Ki, by convention in mol/L.
